Test results taken from publication PMC8124774, “Tuning Anti-Biofilm Activity of Manganese(II) Complexes: Linking Biological Effectiveness of Heteroaromatic Complexes of Alcohol, Aldehyde, Ketone, and Carboxylic Acid with Structural Effects and Redox Activity” (International Journal of Molecular Sciences, 2021).
Where “and” joins values, the source holds several entries; their conditions need not be identical. Equal entries are not always repeated.

Key:
[1] = tested on: P. aeruginosa PAO1 biofilm; assay: biofilm formation, crystal violet staining assay; assay type: cell-based, Pseudomonas aeruginosa; details: P. aeruginosa PAO1, vs untreated control
Method: (§1) All bacteria species were cultivated in trypticase soy broth (TSB) medium (Biocorp, Warsaw, Poland) for 18 h at 37 °C with shaking (160 rpm). Overnight cultures of bacteria were diluted 1:100 into fresh TSB medium and then placed in each of the 96 wells of a microtiter transparent plate (Greiner, Monroe, NC, USA). The manganese(II) complexes—[Mn-pyOH-SO4]n, Mn-imCHO-NO3, Mn-imCHO-Cl, Mn-dipyCO-NO3—and the ligands—pyOH, pyCOOH—were prepared by dissolving compounds in distilled water. […] The starting stock solution was of 2-mM concentration.
To evaluate the effect of the compounds on P. aeruginosa biofilm formation, a crystal violet staining assay was used, following previously described protocols. The concentration of the investigated compounds was in the range 0.0625–1 mM. The amount of biofilm formed was determined by measuring the absorbance at λ = 595 nm with the Infinite M200 PRO microplate reader (Tecan, Männedorf, Switzerland). The measurement results, expressed in absorbance units, were converted into percentages to allow the comparison of numerical data obtained in different experiments.

[2] = target: T1, catalase from the bovine liver (Bos taurus, UniProt P00432); assay: catalase activity in the presence of the Mn(II) complexes (absorbance at 240 nm); assay type: biochemical; details: 0.5 mM complex, vs catalase alone
T1 construct: The catalase from the bovine liver solution; purchased Sigma–Aldrich; host or cells: bovine liver
T1 sequence (P00432 2-527 limits assumed): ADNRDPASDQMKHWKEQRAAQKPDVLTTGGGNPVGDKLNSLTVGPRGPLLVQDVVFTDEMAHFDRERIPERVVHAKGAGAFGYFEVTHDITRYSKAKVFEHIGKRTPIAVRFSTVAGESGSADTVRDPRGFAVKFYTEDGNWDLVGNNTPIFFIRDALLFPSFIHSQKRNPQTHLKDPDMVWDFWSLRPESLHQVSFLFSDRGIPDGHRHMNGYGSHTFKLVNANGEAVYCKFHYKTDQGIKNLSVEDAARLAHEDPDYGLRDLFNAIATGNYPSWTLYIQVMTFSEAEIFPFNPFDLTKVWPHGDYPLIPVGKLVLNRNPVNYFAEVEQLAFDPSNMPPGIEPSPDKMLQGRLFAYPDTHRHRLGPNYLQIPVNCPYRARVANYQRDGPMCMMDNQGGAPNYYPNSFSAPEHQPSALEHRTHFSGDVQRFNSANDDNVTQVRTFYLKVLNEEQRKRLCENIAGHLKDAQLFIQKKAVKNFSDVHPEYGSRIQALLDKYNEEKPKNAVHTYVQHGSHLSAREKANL
Method: First, the complexes were incubated with the catalase in the presence of a phosphate buffer, and then hydrogen peroxide was added thereto. To study the effect of the manganese complexes on the activity of CAT, its performance, in the presence of similar concentrations of the Mn complexes (0.5 mM), was investigated. The percentage of absorbance reduction over time was recorded at 240 nm. The positive control was the catalase sample in the absence of the Mn(II) complex. Figure 12 illustrates the effect of the Mn(II) complexes on the catalase activity.
The effect of the manganese complexes on the activity of catalase (CAT) was determined using the spectrophotometric method. The decrease in absorbance due to hydrogen peroxide depletion was recorded at 240 nm by the V-780 UV-Vis/NIR spectrophotometer (Jasco, Easton, MD, USA). The tests were performed in a 50-mM potassium phosphate buffer (PBS) at 37 °C, pH = 7.0. The catalase from the bovine liver solution (Sigma–Aldrich, St. Louis, MO, USA, lyophilized powder, ≥10,000 units/mg protein) was prepared in the PBS buffer as an initial dilution of ~1000 units/mL at 37 °C. The hydrogen peroxide solution, approximately 0.03% (w/w), was prepared by dilution in the PBS buffer to achieve the absorbance close to 1 a.u, and the PBS was used as a blank. The manganese complexes were diluted in the PBS buffer to stock the concentration of 1 mM. The mixture of 500 µL of the hydrogen peroxide, 1 µL of the catalase (final 1U of catalase activity), and 500 µL of the manganese complexes, previously incubated in a water bath at 37 °C, was added to a quartz cuvette (10 mm, 1 mL), closed by a cover, and placed in the spectrophotometer. The absorbance readings were performed in 10-s intervals during the first minute of the incubation time at 37 °C. The results were presented as the dependence on the percentage of the absorbance reduction over time.

[3] = tested on: Staphylococcus aureus ATCC 6538P; assay: broth microdilution MIC, S. aureus; assay type: cell-based; details: S. aureus, planktonic cells
Method: The antimicrobial activities of the heteroaromatic ligands, Mn(II) complexes, and commercially available drug streptomycin were tested against standard bacterial strains: Staphylococcus aureus ATCC 6538P, Escherichia coli ATCC 8739, Pseudomonas aeruginosa PAO1 (biofilm model strain), and Pseudomonas aeruginosa LES B58 (clinical isolate). The P. aeruginosa PAO1 and LES B58 isolates were derived from the International Pseudomonas aeruginosa Reference Panel (http://bccm.belspo.be/about-us/bccm-lmg, accessed on 30 March 2021).
as §1
The quantitative assay of the antibacterial activity was performed by the broth microdilution method, in 96-well microtiter plates, in order to establish the minimum inhibitory concentration (MIC). To this purpose, serial two-fold dilutions of the compounds ranging between 1 and 0.0625 mM were made. The details of the experiment were presented in our previous paper.

Structure (SMILES) | % Inhibit. Biofilm (0.25 mM) [1] [%] | % Inhibit. Biofilm (0.5 mM) [1] [%] | Action on catalase activity [2] | MIC [3]
Cc1[nH]cnc1C=O.Cc1[nH]cnc1C=O.O=[N+]([O-])[O-].O=[N+]([O-])[O-].[Mn+2] [Mn-imCHO-NO3] | 52 | 56 | promote the catalase activity | 
O=[N+]([O-])[O-].O=[N+]([O-])[O-].OCc1ccccn1.OCc1ccccn1.[Mn+2] [Mn-pyOH-NO3] | 49 | 54 | promote the catalase activity | > 1 mM and > 397 μg/ml
